Assay results taken from patent publication US20200163984A1, “USE OF ISOVALERYL SPIRAMYCIN I, II AND/OR III IN MANUFACTURING MEDICAMENT FOR TREATING AND/OR PREVENTING TUMOR, AND MEDICAMENT” (SHENYANG FUYANG PHARMACEUTICAL TECHNOLOGY CO., LTD., priority 2017, published 2020).
Where two headings read alike, the source gives them in different places.

Assays:
[1] = system: transplanted tumor of human glioblastoma cell A172; details: for tumor volume and relative tumor volume compared with the model group: low, medium and high doses, P<0.05; for Tumor Volume (mm3) (d 1): d1; for mouse weight compared with the model group / Body Weight (g) (d1) / Body Weight (g) (d30): in vivo, mouse
Procedure: Then cell concentration was adjusted to 1×10^7/ml with matrigel, then each nude mouse was inoculated subcutaneously with 0.2 ml of cells at its right armpit and recorded as the first day of inoculation. When the tumor grows to be greater than or equal to 100 mm^3, the mice were randomly divided into 11 groups with 6 mice in each group: a model group, a temozolomide group, […], […], […] Each group was continuously administered intragastrically for 30 days with a dose of 20 ml/kg. The mice were sacrificed the next day after drug withdrawal and the indicators were tested. The long diameter and short diameter of the tumor, and the body weight of each mouse were recorded every 3 days from drug administration to nude mouse sacrifice.
The body weight of the nude mice and the long diameter (a) and short diameter (b) of the transplanted tumor were measured every 3 days, and the tumor volume (v), relative tumor volume (RTV) and relative tumor proliferation rate (T/C) are calculated respectively according to the following formulas, wherein V=a×b^2/2; RTV=V/V0 (V0 is the tumor volume before administration, V is the tumor volume before sacrifice), and T/C (%)=treatment group RTV/model control group RTV×100%.
Each mouse was weighed and sacrificed. After the tumor was completely stripped off from the body of the mouse, the non-tumor tissues such as blood stains and fat were removed to weigh the tumor and calculate the tumor growth inhibition rate. The average tumor weight of each group of mice is used as an indicator of efficacy. Tumor growth inhibition rate (%)=(1−the average tumor weight of the treatment group/the average tumor weight of the model group)×100%.

[2] = system: NK cell activity of spleen cells against K562 cells; experiment: Natural killer (NK) cell activity of Lewis lung cancer tumor-bearing mice; assay type: in vivo, C57BL/6 mouse
Procedure: In the Lewis lung cancer model, the mice inoculated with the tumor were randomly divided into groups with 10 mice in each group the next day of inoculation. The groups included: a model control group, a positive drug cyclophosphamide control group (CTX, 30 mg/kg), isovaleryl spiramycin I groups with doses of 13, 26 and 52 mg/kg; isovaleryl spiramycin II groups with doses of 13, 26 and 52 mg/kg; isovaleryl spiramycin III groups with doses of 13, 26 and 52 mg/kg. Each group was continuously administered intragastrically for 15 days with a dose of 20 ml/kg.
The serum-free RPMI 1640 medium was placed in a dish, and then the dish was placed on ice. The spleen was aseptically taken and gently ground with a sterile glass slide to prepare a single cell suspension. The single cell suspension was filtered with a double-layer sterile gauze, washed twice with serum-free RPMI1640 medium, and centrifuged at 1,500 rpm for 5 min to remove the obtained supernatant. 2 mL of red blood cell lysate was added to the treated suspension, the mixture was allowed to stand for 2 min, and then 8 mL of RPMI 1640 medium was added, centrifuging was performed at 1,500 rpm for 5 min to remove the obtained supernatant, and then washing was performed twice with the RPMI 1640 medium. […] A single cell suspension was prepared by using a RPMI 1640 medium containing 10% fetal bovine serum.
The spleen cell suspension was taken, and the cell density was adjusted to 1×10^7/mL (effector cells). A suspension of K562 cells was prepared with a cell density of 1×10^5/mL (target cells). Each mouse was set with: A. effector cells:target cell well (quantity ratio 20:1) to which […] of spleen cell suspension and 100 μL of K562 cell suspension were added; B. an effector cell control well to which 100 μL of spleen cell suspension and 100 μL of RPMI 1640 medium were added; and C. a target cell control well to which 100 μL of K562 cell suspension and 100 μL of RPMI 1640 medium were added. The above cells were added to a 96-well plate. After the 96-well plate was transferred to a saturated humidity condition with a volume fraction of 5% CO2 at 37° C. for incubation for 22 h, 10 μL of MTT solution (5 g/L) was added to each well, and incubation was continued to be performed for 4 hours under the same conditions, then the culture was terminated. 100 μl of a triple solution (SDS 10 g, 10M HCl 0.1 mL, isobutanol 5 mL, diluted with distilled water to 100 mL) was added, and the plate was shaken for 10 min to fully dissolve the crystals, and the Optical Density (OD) of each well at 490 nm was measured, and the NK cell activity was calculated. NK cell activity (%)=[TO−(S−E)]/TO×100%, wherein TO is the Optical Density of the target cell control well, S is the Optical Density of the effector cell control well, and E is the Optical Density of the effector cell.

[3] = A172, high dose (100 mg/kg in method) i.g. 30 days
[4] = A172, low dose (25 mg/kg in method) i.g. 30 days
[5] = A172, medium dose (50 mg/kg in method) i.g. 30 days

| Structure (SMILES) | Relative Tumor Proliferation Rate (T/C) [1, 3] [%] | tumor growth inhibition rate [1, 3] [%] | Relative Tumor Proliferation Rate (T/C) [1, 4] [%] | tumor growth inhibition rate [1, 4] [%] | tumor volume and relative tumor volume compared with the model group ([1]; A172) | Relative Tumor Proliferation Rate (T/C) [1, 5] [%] | tumor growth inhibition rate [1, 5] [%] | Inhibition Rate (%) ([1]; A172 nude mice, 12.5 mg/kg) | Relative Tumor Proliferation Rate (T/C) ([1]; A172 nude mice, 12.5 mg/kg) [%] | Relative Tumor Volume (RTV) ([1]; A172 nude mice, 12.5 mg/kg) | Tumor Weight ([1]; A172 nude mice, 12.5 mg/kg) [g] | Tumor Volume (mm3) (d 1) ([1]; A172 nude mice, 12.5 mg/kg) | Tumor Volume (mm3) (d30) ([1]; A172 nude mice, 12.5 mg/kg) | Inhibition Rate (%) ([1]; A172 nude mice, 25 mg/kg) | Relative Tumor Proliferation Rate (T/C) ([1]; A172 nude mice, 25 mg/kg) [%] | Relative Tumor Volume (RTV) ([1]; A172 nude mice, 25 mg/kg) | Tumor Weight ([1]; A172 nude mice, 25 mg/kg) [g] | Tumor Volume (mm3) (d 1) ([1]; A172 nude mice, 25 mg/kg) | Tumor Volume (mm3) (d30) ([1]; A172 nude mice, 25 mg/kg) | NK Cell Activity ([2]; 26 mg/kg) [%] | also measured |
| --- | --- | --- | --- | --- | --- | --- | --- | --- | --- | --- | --- | --- | --- | --- | --- | --- | --- | --- | --- | --- | --- |
| CCC(=O)O[C@@H]1CC(=O)O[C@H](C)C/C=C/C=C/[C@H](O[C@H]2CC[C@H](N(C)C)[C@@H](C)O2)[C@H](C)C[C@H](CC=O)[C@H](O[C@@H]2O[C@H](C)[C@@H](O[C@H]3C[C@@](C)(O)[C@@H](OC(=O)CC(C)C)[C@H](C)O3)[C@H](N(C)C)[C@H]2O)[C@H]1OC [Isovaleryl spiramycin III, isovaleryl spiramycin III] | 40.08 | 59.19 | 66.45 | 15.35 | significantly lower | 52.89 | 32.54 | 15.35 | 66.45 | 13.47 ± 1.67 | 1.18 ± 0.11 | 121.75 ± 9.98 | 1305.51 ± 212.02 | 32.54 | 52.89 | 12.63 ± 1.27 | 0.94 ± 0.12 | 118.81 ± 8.97 | 1047.77 ± 165.77 | 46.0 ± 11.8 | Inhibition Rate (%) ([1]; A172 nude mice, 50 mg/kg): 59.19%; Relative Tumor Proliferation Rate (T/C) ([1]; A172 nude mice, 50 mg/kg): 40.08%; Relative Tumor Volume (RTV) ([1]; A172 nude mice, 50 mg/kg): 10.96 ± 0.82; Tumor Weight ([1]; A172 nude mice, 50 mg/kg): 0.57 ± 0.05 g; Tumor Volume (mm3) (d 1) ([1]; A172 nude mice, 50 mg/kg): 118.44 ± 6.21 mm3; Tumor Volume (mm3) (d30) ([1]; A172 nude mice, 50 mg/kg): 795.73 ± 174.84 mm3; mouse weight compared with the model group [1]: no significant changes; Body Weight (g) (d1) ([1]; 12.5 mg/kg): 21.54 ± 0.36 g; Body Weight (g) (d30) ([1]; 12.5 mg/kg): 20.64 ± 0.54 g; Body Weight (g) (d1) ([1]; 25 mg/kg): 20.98 ± 0.47 g; Body Weight (g) (d30) ([1]; 25 mg/kg): 21.54 ± 0.72 g; Body Weight (g) (d1) ([1]; 50 mg/kg): 21.59 ± 0.32 g; Body Weight (g) (d30) ([1]; 50 mg/kg): 20.67 ± 0.56 g; NK Cell Activity ([2]; 13 mg/kg): 48.9 ± 6.6%; NK Cell Activity ([2]; 52 mg/kg): 49.8 ± 6.2%; NK cell activity compared with the control group ([2]; 13, 26 and 52 mg/kg, P<0.01): significantly increase |
| CO[C@@H]1[C@@H](O[C@@H]2O[C@H](C)[C@@H](O[C@H]3C[C@@](C)(O)[C@@H](OC(=O)CC(C)C)[C@H](C)O3)[C@H](N(C)C)[C@H]2O)[C@@H](CC=O)C[C@@H](C)[C@@H](O[C@H]2CC[C@H](N(C)C)[C@@H](C)O2)/C=C/C=C/C[C@@H](C)OC(=O)C[C@H]1O [Isovaleryl spiramycin I, isovaleryl spiramycin I] | 25.16 | 68.79 | 74.49 | 30.75 | significantly lower | 43.43 | 44.26 | 30.75 | 74.49 | 12.69 ± 1.08 | 0.96 ± 0.08 | 120.36 ± 10.15 | 1519.32 ± 71.53 | 44.26 | 43.43 | 10.67 ± 1.08 | 0.77 ± 0.09 | 121.90 ± 10.10 | 889.01 ± 195.61 | 67.0 ± 12.1 | Inhibition Rate (%) ([1]; A172 nude mice, 50 mg/kg): 68.79%; Relative Tumor Proliferation Rate (T/C) ([1]; A172 nude mice, 50 mg/kg): 25.16%; Relative Tumor Volume (RTV) ([1]; A172 nude mice, 50 mg/kg): 10.05 ± 0.71; Tumor Weight ([1]; A172 nude mice, 50 mg/kg): 0.43 ± 0.07 g; Tumor Volume (mm3) (d 1) ([1]; A172 nude mice, 50 mg/kg): 122.38 ± 6.44 mm3; Tumor Volume (mm3) (d30) ([1]; A172 nude mice, 50 mg/kg): 513.12 ± 89.49 mm3; mouse weight compared with the model group [1]: no significant changes; Body Weight (g) (d1) ([1]; 12.5 mg/kg): 21.06 ± 0.43 g; Body Weight (g) (d30) ([1]; 12.5 mg/kg): 20.34 ± 0.17 g; Body Weight (g) (d1) ([1]; 25 mg/kg): 20.98 ± 0.73 g; Body Weight (g) (d30) ([1]; 25 mg/kg): 20.93 ± 0.54 g; Body Weight (g) (d1) ([1]; 50 mg/kg): 21.00 ± 0.65 g; Body Weight (g) (d30) ([1]; 50 mg/kg): 20.88 ± 0.58 g; NK Cell Activity ([2]; 13 mg/kg): 52.5 ± 9.2%; NK Cell Activity ([2]; 52 mg/kg): 39.8 ± 6.8%; NK cell activity compared with the control group ([2]; 13, 26 and 52 mg/kg, P<0.01): significantly increase |
| O=P1(N(CCCl)CCCl)NCCCO1 (centres unmarked) [Cyclophosphamide, cyclophosphamide, reference compound] |  |  |  |  |  |  |  |  |  |  |  |  |  |  |  |  |  |  |  | 35.4 ± 6.6 | NK cell activity compared with the control group ([2]; cyclophosphamide, P<0.05): significantly lower |
| COC1C(OC(C)=O)CC(=O)OC(C)CC=CC=CC(OC2CCC(N(C)C)C(C)O2)C(C)CC(CC=O)C1OC1OC(C)C(OC2CC(C)(O)C(OC(=O)CC(C)C)C(C)O2)C(N(C)C)C1O (centres unmarked) [Isovaleryl spiramycin II, isovaleryl spiramycin II] | 42.18 | 40.01 | 74.24 | 10.85 | significantly lower | 50.59 | 15.71 | 10.85 | 74.24 | 14.73 ± 1.33 | 1.24 ± 0.12 | 123.39 ± 11.22 | 1525.41 ± 255.74 | 15.71 | 50.59 | 14.31 ± 0.98 | 1.17 ± 0.10 | 115.96 ± 11.42 | 984.26 ± 197.97 | 47.0 ± 5.5 | Inhibition Rate (%) ([1]; A172 nude mice, 50 mg/kg): 40.01%; Relative Tumor Proliferation Rate (T/C) ([1]; A172 nude mice, 50 mg/kg): 42.18%; Relative Tumor Volume (RTV) ([1]; A172 nude mice, 50 mg/kg): 12.88 ± 1.54; Tumor Weight ([1]; A172 nude mice, 50 mg/kg): 0.84 ± 0.12 g; Tumor Volume (mm3) (d 1) ([1]; A172 nude mice, 50 mg/kg): 120.28 ± 10.53 mm3; Tumor Volume (mm3) (d30) ([1]; A172 nude mice, 50 mg/kg): 851.14 ± 215.31 mm3; mouse weight compared with the model group [1]: no significant changes; Body Weight (g) (d1) ([1]; 12.5 mg/kg): 21.36 ± 0.67 g; Body Weight (g) (d30) ([1]; 12.5 mg/kg): 21.36 ± 0.87 g; Body Weight (g) (d1) ([1]; 25 mg/kg): 21.10 ± 0.62 g; Body Weight (g) (d30) ([1]; 25 mg/kg): 21.30 ± 0.89 g; Body Weight (g) (d1) ([1]; 50 mg/kg): 21.08 ± 0.74 g; Body Weight (g) (d30) ([1]; 50 mg/kg): 20.97 ± 0.68 g; NK Cell Activity ([2]; 13 mg/kg): 47.2 ± 9.2%; NK Cell Activity ([2]; 52 mg/kg): 43.1 ± 7.3%; NK cell activity compared with the control group ([2]; 13, 26 and 52 mg/kg, P<0.01): significantly increase |
